Converted amounts (≈) assume the structure as drawn. The source made the active and inactive calls. The rule behind the calls is not given here.
Experiments:
Format in all cases: functional
[1] = tested on: Curvularia lunata; assay: Antifungal activity against Curvularia lunata assessed as inhibition of fungal spore germination after 24 hr by compound microscopic analysis relative to control
[2] = tested on: Alternaria alternata; assay: Antifungal activity against Alternaria alternata assessed as inhibition of fungal spore germination after 24 hr by compound microscopic analysis relative to control
[3] = tested on: Bacillus licheniformis; assay: Antibacterial activity against Bacillus licheniformis assessed as growth inhibition after 18 to 24 hr by resazurin assay
[4] = tested on: Enterobacter cloacae; assay: Antibacterial activity against Enterobacter cloacae assessed as growth inhibition after 18 to 24 hr by resazurin assay
[5] = tested on: Escherichia coli; assay: Antibacterial activity against Escherichia coli assessed as growth inhibition after 18 to 24 hr by resazurin assay
[6] = tested on: Fusarium oxysporum; assay: Antifungal activity against Fusarium oxysporum assessed as inhibition of fungal spore germination after 24 hr by compound microscopic analysis relative to control
[7] = tested on: Mycobacterium tuberculosis; assay: Antibacterial activity against Mycobacterium tuberculosis H37Rv assessed as growth inhibition after 5 days by microplate Alamar blue assay; details: 120 h
[8] = tested on: Curvularia lunata; assay: Antifungal activity against Curvularia lunata assessed as inhibition of fungal spore germination after 24 hr by compound microscopic analysis relative to nystatin
[9] = tested on: Alternaria alternata; assay: Antifungal activity against Alternaria alternata assessed as inhibition of fungal spore germination after 24 hr by compound microscopic analysis relative to nystatin
[10] = tested on: Fusarium oxysporum; assay: Antifungal activity against Fusarium oxysporum assessed as inhibition of fungal spore germination after 24 hr by compound microscopic analysis relative to nystatin
[11] = dose or concentration not given here

Compound	inhibition [1]	inhibition [2]	MIC [3] [µg/mL]	MIC [4] [µg/mL]	MIC [5] [µg/mL]	inhibition [6]	MIC [7] [µg/mL]	fold change (FC) [8]	fold change (FC) [9]	fold change (FC) [10]	inhibition [1, 11] [%]	inhibition [2, 11] [%]	inhibition [6, 11] [%]
Cc1ccc(/N=N/c2sc(N)nc2-c2ccc(NC(=O)c3ccccc3)cc2)cc1	inactive	inactive	0.125 (≈ 0.302 µM)	250 (≈ 605 µM)	125 (≈ 302 µM)	inactive							
Nc1nc(-c2ccc(NC(=O)c3ccccc3)cc2)c(/N=N/c2cccc(Cl)c2)s1	inactive	inactive	0.125 (≈ 0.288 µM)	250 (≈ 576 µM)	250 (≈ 576 µM)	inactive							
COc1ccc(/N=N/c2sc(N)nc2-c2ccc(NC(=O)c3ccccc3)cc2)cc1	inactive	inactive	0.125 (≈ 0.291 µM)	250 (≈ 582 µM)	7.8 (≈ 18.2 µM)	inactive							
Nc1nc(-c2ccc(NC(=O)c3ccccc3)cc2)cs1			0.125 (≈ 0.423 µM)	250 (≈ 846 µM)	7.8 (≈ 26.4 µM)		16 (≈ 54.2 µM)	1.06	1.31				
Nc1nc(-c2ccc(NC(=O)c3ccccc3)cc2)c(/N=N/c2ccccc2)s1	inactive	inactive	0.25 (≈ 0.626 µM)	250 (≈ 626 µM)	62.5 (≈ 156 µM)	inactive							
Nc1nc(-c2ccc(NC(=O)c3ccccc3)cc2)c(/N=N/c2cccc([N+](=O)[O-])c2)s1	inactive	inactive	0.0625 (≈ 0.141 µM)	250 (≈ 562 µM)	62.5 (≈ 141 µM)	inactive							
Nc1nc(-c2ccc(NC(=O)c3ccccc3)cc2)c(/N=N/c2ccccc2Cl)s1			0.125 (≈ 0.288 µM)	250 (≈ 576 µM)	125 (≈ 288 µM)			1.73	1.8	1.17			
Nc1nc(-c2ccc(NC(=O)c3ccccc3)cc2)c(/N=N/c2ccc(Cl)cc2)s1	inactive	inactive	0.125 (≈ 0.288 µM)	250 (≈ 576 µM)	250 (≈ 576 µM)	inactive							
O=C(N[C@H](CO)[C@H](O)c1ccc([N+](=O)[O-])cc1)C(Cl)Cl [CHLORAMPHENICOL]			0.0039 (≈ 0.0121 µM)	3.9 (≈ 12.1 µM)	3.9 (≈ 12.1 µM)								
Nc1nc(-c2ccc(NC(=O)c3ccccc3)cc2)c(/N=N/c2ccccc2[N+](=O)[O-])s1			0.125 (≈ 0.281 µM)	250 (≈ 562 µM)	125 (≈ 281 µM)				1.71	1.49			
NYSTATIN											100	100	100
Nc1nc(-c2ccc(NC(=O)c3ccccc3)cc2)c(/N=N/c2ccc([N+](=O)[O-])cc2)s1			0.0312 (≈ 0.0703 µM)	125 (≈ 281 µM)	62.5 (≈ 141 µM)								
Nc1nc(-c2ccc(NC(=O)c3ccccc3)cc2)c(/N=N/c2ccc(Br)cc2)s1			0.25 (≈ 0.523 µM)	250 (≈ 523 µM)	250 (≈ 523 µM)				1.11	2.07			
